Test results as given in ChEMBL document CHEMBL2429832, “N-substituted 8-aminopentacyclo[5.4.0.0(2,6).0(3,10).0(5,9)]undecanes as σ receptor ligands with potential neuroprotective effects” (Bioorg Med Chem, 2013).

Tests used:
[1] = target: GABA-A receptor; agonist GABA site (Homo sapiens) (UniProt P14867+P47870+P28472+P48169+P34903+P18505+P47869+P31644+Q16445); test: Inhibition of GABAA receptor (unknown origin) at 10 uM by PDSP assay relative to control; format: protein-complex assay
[2] = target: Muscarinic acetylcholine receptor M3 (Homo sapiens, UniProt P20309); test: Inhibition of muscarinic M3 receptor (unknown origin) at 10 uM by PDSP assay relative to control
Chain of Muscarinic acetylcholine receptor M3 (P20309 whole entry, looked up): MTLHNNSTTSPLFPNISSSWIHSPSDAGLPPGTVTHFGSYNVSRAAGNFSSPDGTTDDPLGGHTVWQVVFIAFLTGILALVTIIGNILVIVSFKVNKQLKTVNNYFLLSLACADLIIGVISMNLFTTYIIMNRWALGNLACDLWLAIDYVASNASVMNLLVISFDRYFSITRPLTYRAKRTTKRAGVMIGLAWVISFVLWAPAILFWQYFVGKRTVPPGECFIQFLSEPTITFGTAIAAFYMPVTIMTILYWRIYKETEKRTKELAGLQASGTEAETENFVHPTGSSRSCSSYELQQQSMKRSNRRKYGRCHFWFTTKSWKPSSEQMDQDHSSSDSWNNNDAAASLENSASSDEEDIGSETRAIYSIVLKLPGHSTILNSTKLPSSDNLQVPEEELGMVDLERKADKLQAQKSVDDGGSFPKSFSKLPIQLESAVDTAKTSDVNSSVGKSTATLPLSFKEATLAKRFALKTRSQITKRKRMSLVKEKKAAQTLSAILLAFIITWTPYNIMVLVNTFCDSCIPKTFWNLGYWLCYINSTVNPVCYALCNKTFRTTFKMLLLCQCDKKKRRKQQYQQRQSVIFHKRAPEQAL

[3] = target: D(1B) dopamine receptor (Homo sapiens, UniProt P21918); test: Inhibition of dopamine D5 receptor (unknown origin) by PDSP assay
Chain of D(1B) dopamine receptor (P21918 whole entry): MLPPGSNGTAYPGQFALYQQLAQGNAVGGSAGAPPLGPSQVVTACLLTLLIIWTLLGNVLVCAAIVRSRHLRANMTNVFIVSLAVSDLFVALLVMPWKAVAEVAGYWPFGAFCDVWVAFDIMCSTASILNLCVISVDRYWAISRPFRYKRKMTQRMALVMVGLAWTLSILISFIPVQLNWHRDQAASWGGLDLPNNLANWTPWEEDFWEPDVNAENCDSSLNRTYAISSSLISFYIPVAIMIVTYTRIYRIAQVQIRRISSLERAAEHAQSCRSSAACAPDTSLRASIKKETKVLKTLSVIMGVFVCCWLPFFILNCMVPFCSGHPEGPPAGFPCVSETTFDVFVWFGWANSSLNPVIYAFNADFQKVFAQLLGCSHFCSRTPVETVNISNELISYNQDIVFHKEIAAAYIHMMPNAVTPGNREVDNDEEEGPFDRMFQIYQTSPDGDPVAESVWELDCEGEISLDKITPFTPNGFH

[4] = target: Histamine H1 receptor (Homo sapiens, UniProt P35367); test: Inhibition of histamine H1 receptor (unknown origin) by PDSP assay
Chain of Histamine H1 receptor (P35367 whole entry): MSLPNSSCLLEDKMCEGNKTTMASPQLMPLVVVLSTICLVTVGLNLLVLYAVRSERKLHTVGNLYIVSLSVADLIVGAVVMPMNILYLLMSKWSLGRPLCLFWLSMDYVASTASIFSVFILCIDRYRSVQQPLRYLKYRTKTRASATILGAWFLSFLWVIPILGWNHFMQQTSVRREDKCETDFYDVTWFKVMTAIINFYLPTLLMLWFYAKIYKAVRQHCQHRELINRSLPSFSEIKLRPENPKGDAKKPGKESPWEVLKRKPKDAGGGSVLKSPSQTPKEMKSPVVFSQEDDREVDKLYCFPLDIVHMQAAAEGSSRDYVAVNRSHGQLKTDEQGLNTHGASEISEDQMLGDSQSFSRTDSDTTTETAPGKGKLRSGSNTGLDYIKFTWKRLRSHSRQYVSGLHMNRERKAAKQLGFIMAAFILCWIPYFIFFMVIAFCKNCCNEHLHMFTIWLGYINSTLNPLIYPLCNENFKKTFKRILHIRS

[5] = target: T1, Alpha-1B adrenergic receptor (Homo sapiens) (UniProt P35368); test: Inhibition of adrenergic alpha1B receptor (unknown origin) at 10 uM by PDSP assay relative to control
T1 sequence (whole entry): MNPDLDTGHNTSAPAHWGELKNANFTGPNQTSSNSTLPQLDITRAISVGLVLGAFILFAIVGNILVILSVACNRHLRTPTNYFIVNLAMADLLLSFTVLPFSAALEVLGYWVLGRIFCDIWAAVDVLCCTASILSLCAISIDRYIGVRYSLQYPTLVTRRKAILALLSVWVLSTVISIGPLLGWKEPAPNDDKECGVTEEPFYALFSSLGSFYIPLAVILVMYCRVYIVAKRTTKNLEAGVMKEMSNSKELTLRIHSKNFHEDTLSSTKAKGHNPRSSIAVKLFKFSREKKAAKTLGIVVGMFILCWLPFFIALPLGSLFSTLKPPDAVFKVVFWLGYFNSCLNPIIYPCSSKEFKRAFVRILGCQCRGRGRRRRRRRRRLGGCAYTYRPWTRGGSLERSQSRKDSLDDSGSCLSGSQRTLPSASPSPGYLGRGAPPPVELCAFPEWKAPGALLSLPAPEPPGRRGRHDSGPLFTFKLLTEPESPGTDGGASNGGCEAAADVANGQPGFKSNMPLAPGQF

[6] = target: Histamine H2 receptor (Homo sapiens, UniProt P25021); test: Inhibition of histamine H2 receptor (unknown origin) by PDSP assay
Chain of Histamine H2 receptor (P25021 whole entry): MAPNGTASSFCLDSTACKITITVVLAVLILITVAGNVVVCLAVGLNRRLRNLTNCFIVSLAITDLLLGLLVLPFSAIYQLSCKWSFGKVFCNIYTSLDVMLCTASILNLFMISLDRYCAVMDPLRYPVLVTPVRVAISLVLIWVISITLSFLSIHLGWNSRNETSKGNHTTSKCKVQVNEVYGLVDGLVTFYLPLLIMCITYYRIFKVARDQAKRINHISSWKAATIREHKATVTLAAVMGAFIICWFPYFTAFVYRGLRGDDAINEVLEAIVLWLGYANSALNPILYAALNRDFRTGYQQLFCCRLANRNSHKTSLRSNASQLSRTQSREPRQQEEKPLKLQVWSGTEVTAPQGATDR

[7] = target: D(2) dopamine receptor (Homo sapiens, UniProt P14416); test: Inhibition of dopamine D2 receptor (unknown origin) at 10 uM by PDSP assay relative to control
Chain of D(2) dopamine receptor (P14416 whole entry): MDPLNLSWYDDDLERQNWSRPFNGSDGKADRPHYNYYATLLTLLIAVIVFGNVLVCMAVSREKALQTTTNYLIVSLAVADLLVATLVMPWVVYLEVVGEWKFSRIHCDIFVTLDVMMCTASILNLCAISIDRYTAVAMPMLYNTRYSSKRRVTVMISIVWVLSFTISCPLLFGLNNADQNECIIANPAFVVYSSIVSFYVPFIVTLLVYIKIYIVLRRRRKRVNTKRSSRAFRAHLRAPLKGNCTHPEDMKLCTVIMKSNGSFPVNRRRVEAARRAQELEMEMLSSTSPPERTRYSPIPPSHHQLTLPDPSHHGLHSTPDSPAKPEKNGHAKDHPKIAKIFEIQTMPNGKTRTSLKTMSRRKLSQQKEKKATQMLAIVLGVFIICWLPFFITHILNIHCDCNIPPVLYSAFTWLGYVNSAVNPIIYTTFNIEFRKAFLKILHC

[8] = target: Sodium-dependent dopamine transporter (Homo sapiens, UniProt Q01959); test: Displacement of [3H]-WIN-35,428 from human DAT expressed in HEK cell membranes at 10 uM relative to control; conditions: HEK293
Chain of Sodium-dependent dopamine transporter (Q01959 whole entry): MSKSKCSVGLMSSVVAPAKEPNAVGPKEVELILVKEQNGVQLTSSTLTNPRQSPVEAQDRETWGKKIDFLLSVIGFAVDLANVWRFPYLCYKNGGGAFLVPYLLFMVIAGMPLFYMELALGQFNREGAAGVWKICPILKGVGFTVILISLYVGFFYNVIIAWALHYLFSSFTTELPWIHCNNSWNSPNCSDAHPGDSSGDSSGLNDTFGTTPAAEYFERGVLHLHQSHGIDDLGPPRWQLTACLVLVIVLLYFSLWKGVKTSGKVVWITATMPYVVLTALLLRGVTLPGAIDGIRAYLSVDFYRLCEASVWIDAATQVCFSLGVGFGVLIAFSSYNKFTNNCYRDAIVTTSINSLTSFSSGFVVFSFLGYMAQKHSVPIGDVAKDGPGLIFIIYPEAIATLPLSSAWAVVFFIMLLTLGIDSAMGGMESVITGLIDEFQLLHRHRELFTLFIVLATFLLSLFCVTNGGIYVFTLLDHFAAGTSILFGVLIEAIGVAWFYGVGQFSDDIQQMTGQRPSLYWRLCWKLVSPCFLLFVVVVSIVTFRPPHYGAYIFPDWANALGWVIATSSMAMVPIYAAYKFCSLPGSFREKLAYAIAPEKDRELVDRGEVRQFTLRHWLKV

[9] = target: T2, Muscarinic acetylcholine receptor M2 (Homo sapiens) (UniProt P08172); test: Inhibition of muscarinic M2 receptor (unknown origin) at 10 uM by PDSP assay relative to control
T2 sequence (whole entry): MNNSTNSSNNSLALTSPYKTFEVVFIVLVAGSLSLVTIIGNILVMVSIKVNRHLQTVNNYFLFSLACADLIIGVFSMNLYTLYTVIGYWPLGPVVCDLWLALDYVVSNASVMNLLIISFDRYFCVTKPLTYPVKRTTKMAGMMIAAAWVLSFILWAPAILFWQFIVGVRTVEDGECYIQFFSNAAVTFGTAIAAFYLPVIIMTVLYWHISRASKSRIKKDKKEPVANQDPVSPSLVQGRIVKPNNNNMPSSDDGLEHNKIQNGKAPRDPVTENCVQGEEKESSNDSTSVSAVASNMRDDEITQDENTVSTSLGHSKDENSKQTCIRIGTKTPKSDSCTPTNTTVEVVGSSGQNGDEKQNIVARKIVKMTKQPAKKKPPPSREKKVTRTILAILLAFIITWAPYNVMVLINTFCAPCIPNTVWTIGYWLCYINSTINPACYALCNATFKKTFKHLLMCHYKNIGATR

[10] = target: T3, Muscarinic acetylcholine receptor M4 (Homo sapiens) (UniProt P08173); test: Inhibition of muscarinic M4 receptor (unknown origin) at 10 uM by PDSP assay relative to control
T3 sequence (whole entry): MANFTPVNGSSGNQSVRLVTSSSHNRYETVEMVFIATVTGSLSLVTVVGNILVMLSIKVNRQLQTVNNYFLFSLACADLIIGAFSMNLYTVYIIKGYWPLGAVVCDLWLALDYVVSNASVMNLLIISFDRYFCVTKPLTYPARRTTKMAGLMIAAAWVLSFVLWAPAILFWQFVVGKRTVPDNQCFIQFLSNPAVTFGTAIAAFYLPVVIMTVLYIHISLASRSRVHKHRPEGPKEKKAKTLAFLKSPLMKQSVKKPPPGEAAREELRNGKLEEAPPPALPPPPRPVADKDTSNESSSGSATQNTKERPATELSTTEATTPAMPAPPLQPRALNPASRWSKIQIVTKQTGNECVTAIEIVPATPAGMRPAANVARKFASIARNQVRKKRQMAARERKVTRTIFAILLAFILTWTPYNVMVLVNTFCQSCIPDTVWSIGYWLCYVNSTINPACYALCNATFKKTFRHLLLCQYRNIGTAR

| inhibition [1] [%] | inhibition [2] [%] | Ki [3] [µM] | Ki [4] [µM] | inhibition [5] [%] | Ki [6] [µM] | inhibition [7] [%] | inhibition [8] [%] | Structure (SMILES) | inhibition [9] [%] | inhibition [10] [%] |
| --- | --- | --- | --- | --- | --- | --- | --- | --- | --- | --- |
| < 50 | < 50 | > 10 | 4.18 | < 50 | 1.16 | < 50 | < 50 | c1cc2c(cc1CN[C@H]1C3C4CC5C6C4CC3C6C51)OCO2 (some centres not stated) |  |  |
| < 50 | < 50 | > 10 | 5.57 | < 50 | 1.73 | < 50 | < 50 | COc1cc(CN[C@H]2C3C4CC5C6C4CC3C6C52)cc(OC)c1OC (some centres not stated) | < 50 | < 50 |

| Structure (SMILES) | inhibition [1] [%] | inhibition [2] [%] | Ki [3] [µM] | Ki [4] [µM] | inhibition [5] [%] | Ki [6] [µM] | inhibition [7] [%] | inhibition [8] [%] | inhibition [9] [%] | inhibition [10] [%] |
| --- | --- | --- | --- | --- | --- | --- | --- | --- | --- | --- |
| CN(Cc1ccc2c(c1)OCO2)[C@H]1C2C3CC4C5C3CC2C5C41 (some centres not stated) | < 50 | < 50 | > 10 |  | < 50 | 8.52 | < 50 | < 50 | < 50 | < 50 |
